Test results from patent US20260335327A1, “IDH MUTATIONS AS BIOMARKERS FOR ZOTIRACICLIB THERAPY” (Cothera Bioscience, Inc., priority 2022, published 2026).

How the values were obtained:
Type in all cases: cell-based, Human
HT-1080 = experiment: Apoptosis assay (Annexin V/PI staining, FACS), HT-1080 cells; conditions: 0.2 μM TG02; IDH1-mutant chondrosarcoma HT-1080; compared with IDH1-WT (Hucct-1); FIGS. 2A-2B
Method: (§1) Cell Culture. Human Chondrosarcoma cell line HT-1080 was cultured in MEM (Gibco, USA) supplemented with 10% fetal bovine serum (FBS, Gemini, USA). Human cholangiocarcinoma cell lines RBE, Hccc-9810, and Hucct-1 were cultured in RPMI1640 (Hyclone, USA) supplemented with 10% FBS. Cells were incubated at 37 °C in 5% CO2.
(§2) Apoptosis Assay. HT-1080, RBE, Hccc-9810, and Hucct-1 cells were treated with the indicated drugs. Apoptosis was detected by Annexin V/PI staining kit (Thermo Fisher) according to the manufacturer's instructions. Briefly, cells were plated at a density of 1× 10^5 cells/well in media with 10% FBS with desired concentrations of TG02. At 48/72-hour post-treatment the cells were harvested and tested for apoptosis by Annexin V and PI staining. Cell analysis was performed using a FACSCelesta (BD).

RBE = experiment: Apoptosis assay (Annexin V/PI staining, FACS), RBE cells; conditions: 0.2 μM TG02; IDH1-mutant cholangiocarcinoma RBE; compared with IDH1-WT (Hucct-1); FIGS. 2A-2B
Method: as §1, §2

Hccc-9810 = experiment: Apoptosis assay (Annexin V/PI staining, FACS), Hccc-9810 cells
Method: as §1, §2

[1] = system: Hucct-1 cells transfected with IDH1 R132H plasmid; experiment: Apoptosis assay (FACS), Hucct-1 cells transfected with IDH1 R132H plasmid; conditions: 0.1 μM TG02, 72 h; Hucct-1 transfected with IDH1 R132H; FIG. 3A
Method: as §1, §2
Transfection. The day before transfection, cells (~2×10^5/well) were seeded in a 6-well plate. The cells were cultured in a 37 °C in 5% CO2 incubator overnight. The old medium was removed and 2 ml of transfection medium was added. 50 μl opti-MEM was added to a tube, and then 2 μg plasmid DNA Mix solution was mixed by vortexing. 4 μl PEI solution was added to this tube, and the solution was mixed by gently pipetting up and down. The samples were incubated at room temperature for 15 min to allow the PEI/DNA complexes to form. […]

[2] = system: mutant IDH1 (HT-1080) cells; experiment: Neutral comet assay (DNA damage), HT-1080 cells; conditions: for rescue of TG02-induced DNA damage: exogenous α-KG or AG-120 with TG02, 48 h
Method: as §1
Comet assay. The comet assay is common technique for measurement of DNA damage in individual cells. Under an electrophoretic field, damaged cellular DNA (containing fragments and strand breaks) is separated from intact DNA, yielding a classic “comet tail” shape under the microscope. DNA damage was assayed by OxiSelect™ Comet Assay Kit (CELL BIOLABS, INC.) according to the manufacturer's instructions. Briefly, comet agarose was pipetted onto the OxiSelect™ Comet Slide to form a base layer. Cells were combined with OxiSelect™ Comet agarose at 37 °C, then the agarose/cell mixture was pipetted onto the top of the base layer. Cells were treated with lysis buffer and alkaline solution. Electrophoresis was performed under neutral conditions. The slides were viewed by epifluorescence microscopy using a FITC filter.
Tail Moment=(100×Tail DNA Intensity/Cell DNA Intensity)×Tail Moment Length

Hucct1^R132H/+ cells = experiment: Neutral comet assay (Tail moment), Hucct1^R132H/+ cells; conditions: 0.2 μM TG02, 48 h, compared with Hucct1 treated with TG02, FIG. 7A
Method: as §1
(§3) Comet assay. The comet assay is common technique for measurement of DNA damage in individual cells. Under an electrophoretic field, damaged cellular DNA (containing fragments and strand breaks) is separated from intact DNA, yielding a classic “comet tail” shape under the microscope. DNA damage was assayed by OxiSelect™ Comet Assay Kit (CELL BIOLABS, INC.) according to the manufacturer's instructions. Briefly, comet agarose was pipetted onto the OxiSelect™ Comet Slide to form a base layer. Cells were combined with OxiSelect™ Comet agarose at 37 °C, then the agarose/cell mixture was pipetted onto the top of the base layer. Cells were treated with lysis buffer and alkaline solution. Electrophoresis was performed under neutral conditions. […]
In FIG. 7A, IDH1-mutant Hucct1 cells (Hucct1^R132H/+) were generated by lentivirus expressing IDH1 R132H. […] Quantification of Tail moment in neutral comet assay is presented. ns: no significant differences; ***: P<0.001, ****: P<0.0001, compared with NC; #: P<0.05, compared with Hucct1 cells treated with TG02. […]

Hucct1R132H/+ cells = experiment: Western blot of phosphorylated γH2AX (marker of DSBs), Hucct1^R132H/+ cells; conditions: 0.2 μM TG02, 16 h, FIG. 7B
Method: Western blot. […] Then the pellets were lysed in lysis buffer (Beyotime, China) which additionally included a protease inhibitor cocktail (Beyotime, China) and phosphatase inhibitor cocktail (Beyotime, China). Cells were incubated on ice for 30 minutes and then centrifuged at 4 °C, 12000 rpm for 10 minutes to obtain the supernatant as cell lysate. The concentrations of protein in cell lysate were determined by Micro BCA™ Protein Assay Kit (ThermoFisher, USA). 4×SDS-PAGE Sample Loading Buffer (SolarBio, China) was added into cell lysate contained 25 μg of total protein and, after boiling, the mixture was electrophoresed in polyacrylamide gel. After electrophoresis, proteins on the gel were transferred to PVDF membrane, and the membrane was cut at position close to the molecular weights of proteins whose expression was examined (pH2AX (CST, USA), GAPDH (ZSGB-BIO, China)).
In FIG. 7A, IDH1-mutant Hucct1 cells (Hucct1^R132H/+) were generated by lentivirus expressing IDH1 R132H. Hucct1, Hucct1^R132H/+ and HT-1080 cells were treated with 0.2 μM TG02 or 0.1% DMSO for 48 h. Cells were used to comet assays. Quantification of Tail moment in neutral comet assay is presented. ns: no significant differences; ***: P<0.001, ****: P<0.0001, compared with NC; #: P<0.05, compared with Hucct1 cells treated with TG02. […]

mutant IDH1 cancer cells = experiment: Overall conclusion on DNA damage and cell-killing in mutant IDH1 versus homozygous wild-type IDH1 cancer cells; conditions: mutant IDH1 relative to homozygous wild-type IDH1 cancer cells
Method: as §2, §3
Western blot. […] The concentrations of protein in cell lysate were determined by Micro BCA™ Protein Assay Kit (ThermoFisher, USA). […]

[3] = system: mutant IDH1 cells (Hccc-9810); experiment: Western blot of pH2AX (marker of DNA damage), Hccc-9810 cells; conditions: exogenous AG-120 with TG02, 48 h; WB; FIG. 6
Method: as §1
Western blot. Hccc-9810 and Hucct-1 cells treated with TG02 or AG120 as indicated for 48 h (0.1% DMSO was added as control) were harvested and centrifuged at 500 g for 5 minutes to obtain cell pellets. Then the pellets were lysed in lysis buffer (Beyotime, China) which additionally included a protease inhibitor cocktail (Beyotime, China) and phosphatase inhibitor cocktail (Beyotime, China). Cells were incubated on ice for 30 minutes and then centrifuged at 4 °C, 12000 rpm for 10 minutes to obtain the supernatant as cell lysate. The concentrations of protein in cell lysate were determined by Micro BCA™ Protein Assay Kit (ThermoFisher, USA). 4×SDS-PAGE Sample Loading Buffer (SolarBio, China) was added into cell lysate contained 25 μg of total protein and, after boiling, the mixture was electrophoresed in polyacrylamide gel. After electrophoresis, proteins on the gel were transferred to PVDF membrane, and the membrane was cut at position close to the molecular weights of proteins whose expression was examined (pH2AX (CST, USA), GAPDH (ZSGB-BIO, China)).

[4] = neutral comet assay, FIGS. 5A-5B

Compound: CN1C/C=C/CCOc2cccc(c2)-c2ccnc(n2)Nc2cccc(c2)C1 [TG02, (16E)-14-methyl-20-oxa-5,7,14,27-tetraazatetracyclo[19.3.1.1^2,6. 1^8,12]heptacosa-1(25),2(27),3,5,8,10,12(26),16,21,23-decaene]
- sensitivity to TG02 (apoptosis) (HT-1080): more sensitive to TG02 than IDH1-WT (Hucct-1) cells
- sensitivity to TG02 (apoptosis) (RBE): more sensitive to TG02 than IDH1-WT (Hucct-1) cells
- sensitivity to TG02 (apoptosis) (Hccc-9810; 0.2 μM TG02, IDH1-mutant cholangiocarcinoma Hccc-9810 (printed Hcc-9810), compared with IDH1-WT (Hucct-1), FIGS. 2A-2B): more sensitive to TG02 than IDH1-WT (Hucct-1) cells
- TG02-induced apoptosis (Hccc-9810; TG02 for 72 h, without exogenous α-KG, FIG. 4): TG02-induced apoptosis of mutant IDH1 (Hccc-9810) cells
- TG02 sensitivity (apoptosis) [1]: increased TG02 sensitivity can be conferred onto IDH1-WT (Hucct-1) cells by transfection of mutated IDH1
- sensitivity to DNA damage induced by TG02 (Tail moment) ([2]; 0.2 μM TG02, 48 h, HT-1080, compared with Hucct1 treated with TG02, FIG. 7A): cells with IDH1 mutation are more sensitive to DNA damage induced by TG02
- TG02-induced DNA damage ([2]; 48 h, neutral comet assay, FIGS. 5A-5B): TG02-induced DNA damage in mutant IDH1 (HT-1080) cells
- sensitivity to DNA damage induced by TG02 (Tail moment) (Hucct1^R132H/+ cells): cells with IDH1 mutation are more sensitive to DNA damage induced by TG02
- sensitivity to DNA damage induced by TG02 (phosphorylated γH2AX) (Hucct1R132H/+ cells): cells with IDH1 mutation are more sensitive to DNA damage induced by TG02
- selective DNA damage (mutant IDH1 cancer cells): selectively induces DNA damage and cell-killing in mutant IDH1 cancer cells relative to homozygous wild-type IDH1 cancer cells
- selective cell-killing (mutant IDH1 cancer cells): selectively induces DNA damage and cell-killing in mutant IDH1 cancer cells relative to homozygous wild-type IDH1 cancer cells

Compound: N#Cc1ccnc(N2C(=O)CC[C@H]2C(=O)N(c2cncc(F)c2)[C@H](C(=O)NC2CC(F)(F)C2)c2ccccc2Cl)c1 [AG-120, ivosidenib]
- rescue of TG02-induced DNA damage [2, 4]: can be rescued by addition of exogenous α-KG or AG-120
- rescue of TG02-induced DNA damage (pH2AX) [3]: TG02-induced DNA damage was rescued only in mutant IDH1 cells (Hccc-9810)

Compound: O=C(O)CCC(=O)C(=O)O [α-KG, α-ketoglutarate]
- rescue of TG02-induced apoptosis (Hccc-9810; α-KG pretreatment 24 h, then TG02 for 72 h, FIG. 4): can be rescued by addition of exogenous substrate α-ketoglutarate (α-KG)
- rescue of TG02-induced DNA damage [2, 4]: can be rescued by addition of exogenous α-KG or AG-120
